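Each compound was tested at five concentrations against cells in 96-well plates for 48 hours. The concentration for 50% growth inhibition is given as GI50. TGI marks complete inhibition of growth.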
Assays:
Assay in all cases: NCI-60 cell line screen, 48 h
CAKI-1 renal = tested on: CAKI-1 renal
IGROV1 ovarian = tested on: IGROV1 ovarian
A549 NSCLC = tested on: A549 NSCLC
HCT-116 colon = tested on: HCT-116 colon
HT29 colon = tested on: HT29 colon
EKVX NSCLC = tested on: EKVX NSCLC
NCI-H23 lung = tested on: NCI-H23 lung
SK-OV-3 ovarian = tested on: SK-OV-3 ovarian
COLO 205 colon = tested on: COLO 205 colon
NCI/ADR-RES ovarian = tested on: NCI/ADR-RES ovarian

SMILES	TGI (CAKI-1 renal)	TGI (IGROV1 ovarian)	TGI (A549 NSCLC)	TGI (HCT-116 colon)	TGI (HT29 colon)	TGI (EKVX NSCLC)	TGI (NCI-H23 lung)	TGI (SK-OV-3 ovarian)	TGI (COLO 205 colon)	GI50 (CAKI-1 renal)	GI50 (IGROV1 ovarian)	GI50 (A549 NSCLC)	GI50 (HCT-116 colon)	GI50 (HT29 colon)	GI50 (EKVX NSCLC)	GI50 (NCI-H23 lung)	GI50 (NCI/ADR-RES ovarian)	TGI (NCI/ADR-RES ovarian)	GI50 (SK-OV-3 ovarian)	GI50 (COLO 205 colon)
CCC(=O)N1C(=S)SC[C@H]1C(=O)OC	> 100 µM	> 100 µM	> 100 µM	> 100 µM	> 100 µM	> 100 µM	> 100 µM	> 100 µM	> 100 µM											
Cc1cc[c]([Sb]2[O]C(CO)C(C(O)C(O)C(=O)O)[O]2)cc1 (configuration not stated)	> 100 µM	> 100 µM	> 100 µM	> 100 µM	> 100 µM	> 100 µM	> 100 µM			> 100 µM	> 100 µM	35.3 µM	33.7 µM	46.4 µM	41 µM	> 100 µM	> 100 µM	> 100 µM		
O=NN(CC1(O)OCC(O)C(O)C1O)C(Cc1c[nH]c2ccccc12)C(=O)O (configuration not stated)		> 100 µM	> 100 µM	> 100 µM	> 100 µM	> 100 µM	> 100 µM	> 100 µM	> 100 µM											
O=c1oc2ccccc2cc1P(=O)(O)O	> 100 µM	> 100 µM	> 100 µM	> 100 µM	> 100 µM	> 100 µM	> 100 µM		> 100 µM									> 100 µM		
CCO/C(O)=c1/s/c(=C2/SC(=S)N(c3ccc(C)cc3)C2=O)n(-c2ccccc2)c1=N		> 100 µM	> 100 µM	> 100 µM	> 100 µM	> 100 µM	> 100 µM	> 76 µM	> 100 µM									> 100 µM		
COc1ccc(C(O)C(c2ccc(OCc3ccccc3)cc2)c2ccc(OCc3ccccc3)cc2)cc1 (configuration not stated)	> 100 µM	> 100 µM	> 100 µM	> 100 µM	> 100 µM	> 100 µM	> 100 µM	> 100 µM	> 100 µM											
O=C1/C(=C/c2cc(O)c(O)c(O)c2)Oc2cc(O)cc(OC3OC(CO)C(O)C(O)C3O)c21 (configuration not stated)		> 100 µM	> 100 µM	31.1 µM	59.5 µM	> 100 µM	80.9 µM	> 100 µM	54.1 µM											
CSC(=Nc1ccc([N+](=O)[O-])cc1C#N)NC(=O)c1ccccc1	> 100 µM	> 100 µM	> 100 µM	> 100 µM	> 100 µM	> 100 µM	> 100 µM		> 100 µM											
CCOc1cc(/C=C/C(=O)CC(=O)/C=C/c2ccc(OC(=O)CNc3nc4ccc(OC)cc4s3)c(OCC)c2)ccc1OC(=O)CNc1nc2ccc(OC)cc2s1	53.3 µM		31 µM	15.1 µM	4.8 µM	11.7 µM	75.4 µM	53 µM	29.3 µM	11.4 µM		4.94 µM	3.02 µM	2.28 µM	3.48 µM	7.78 µM	20 µM	> 100 µM	9.89 µM	14 µM
O=c1c2ccccc2c(=O)n2n1-c1cccc(c1)CSSCc1cccc-2c1	> 100 µM	> 100 µM	> 100 µM	> 100 µM		> 100 µM	> 100 µM	> 100 µM	> 100 µM	> 100 µM	> 100 µM	> 100 µM	> 100 µM		> 100 µM	> 100 µM				> 100 µM
CCN(CC)CC(C(=O)Nc1c(C)cccc1C)/C(C)=N\NC(=S)NN (configuration not stated)		> 100 µM	> 100 µM	> 100 µM	> 100 µM	> 100 µM	> 100 µM	> 100 µM	> 100 µM											
O=C1CN=C(c2ccccc2)c2ccncc2N1	> 100 µM	> 100 µM	> 100 µM	> 100 µM	> 100 µM	> 100 µM	> 100 µM	> 100 µM	> 100 µM											
CCN(Cc1ccccc1)c1ccc(/C=C2\COc3ccccc3C2=O)cc1		> 1000 µM	> 1000 µM	> 1000 µM	> 1000 µM	> 1000 µM	> 1000 µM	> 1000 µM	> 1000 µM		> 1000 µM	> 1000 µM	270 µM	135 µM	538 µM	818 µM	351 µM	> 1000 µM	> 1000 µM	> 1000 µM
O=c1[nH]c(=O)n(Cc2ccc(C34CC5CC(CC(C5)C3)C4)c(O)c2)cc1F	37.5 µM			28.5 µM	37.2 µM	35.7 µM	27.2 µM	55.7 µM	37.9 µM	17.7 µM			13.3 µM	14.2 µM	16.4 µM	12.5 µM	13 µM	31.4 µM	21 µM	17.2 µM
CCOP(=O)(OCC)C(C(=O)OC)C(=O)C(=O)Nc1cccc([N+](=O)[O-])c1 (configuration not stated)	> 100 µM	> 100 µM	> 100 µM	> 100 µM	> 100 µM	> 100 µM	> 100 µM	> 100 µM	> 100 µM											
CC(C)N1CCOC(c2ccc(O)c(O)c2)C1 (configuration not stated)	> 100 µM	> 100 µM	> 100 µM		> 100 µM	> 100 µM	> 100 µM	> 100 µM	> 100 µM											
C=CCn1c(SCC(=O)Nc2ccc(C(=O)/C=C/c3cc(OC)c(OC)c(OC)c3)cc2)nnc1-c1cc(OC)c(OC)c(OC)c1		18.4 µM	36.5 µM	5.12 µM	6.14 µM	33.8 µM	26 µM	21.2 µM	24.7 µM		3.42 µM	6.46 µM	2.09 µM	2.66 µM	4.03 µM	3.41 µM	15.3 µM	> 100 µM	5.08 µM	4.94 µM
CC1COS(=O)N1c1ccccc1 (configuration not stated)		> 100 µM	> 100 µM		> 100 µM	> 100 µM	> 100 µM	> 100 µM	> 100 µM											
